# Data taken from PubChem BioAssay (NCI).
#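 Compound exposure: 48 hours, 5 concentrations, 96-well plates. TGI denotes the concentration required for complete inhibition of growth.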
# What was measured:
# Test in all cases: DTP human tumour cell line panel, 48 h
# 786-0 renal = tested on: 786-0 renal
# A498 renal = tested on: A498 renal
# A549 NSCLC = tested on: A549 NSCLC
# ACHN renal = tested on: ACHN renal
# BT-549 breast = tested on: BT-549 breast
# CAKI-1 renal = tested on: CAKI-1 renal
# CCRF-CEM leukemia = tested on: CCRF-CEM leukemia
# COLO 205 colon = tested on: COLO 205 colon
# DU-145 prostate = tested on: DU-145 prostate
# EKVX NSCLC = tested on: EKVX NSCLC
# HCC-2998 colon = tested on: HCC-2998 colon
# HCT-116 colon = tested on: HCT-116 colon
# HCT-15 colon = tested on: HCT-15 colon
# HL-60(TB) leukemia = tested on: HL-60(TB) leukemia
# HOP-62 NSCLC = tested on: HOP-62 NSCLC
# HOP-92 NSCLC = tested on: HOP-92 NSCLC
# HS 578T breast = tested on: HS 578T breast
# HT29 colon = tested on: HT29 colon
# IGROV1 ovarian = tested on: IGROV1 ovarian
# K-562 leukemia = tested on: K-562 leukemia
# KM12 colon = tested on: KM12 colon
# LOX IMVI melanoma = tested on: LOX IMVI melanoma
# M14 melanoma = tested on: M14 melanoma
# MALME-3M melanoma = tested on: MALME-3M melanoma
# MCF7 breast = tested on: MCF7 breast
# MDA-MB-231 breast = tested on: MDA-MB-231 breast
# MDA-MB-435 = tested on: MDA-MB-435
# MDA-N = tested on: MDA-N
# MOLT-4 leukemia = tested on: MOLT-4 leukemia
# NCI-H226 lung = tested on: NCI-H226 lung
# NCI-H23 lung = tested on: NCI-H23 lung
# NCI-H460 lung = tested on: NCI-H460 lung
# NCI-H522 lung = tested on: NCI-H522 lung
# NCI/ADR-RES ovarian = tested on: NCI/ADR-RES ovarian
# OVCAR-3 ovarian = tested on: OVCAR-3 ovarian
# OVCAR-4 ovarian = tested on: OVCAR-4 ovarian
# OVCAR-5 ovarian = tested on: OVCAR-5 ovarian
# OVCAR-8 ovarian = tested on: OVCAR-8 ovarian
# PC-3 prostate = tested on: PC-3 prostate
# RPMI-8226 leukemia = tested on: RPMI-8226 leukemia
# RXF 393 renal = tested on: RXF 393 renal
# SF-268 CNS = tested on: SF-268 CNS
# SF-295 CNS = tested on: SF-295 CNS
# SF-539 CNS = tested on: SF-539 CNS
# SK-MEL-2 melanoma = tested on: SK-MEL-2 melanoma
# SK-MEL-28 melanoma = tested on: SK-MEL-28 melanoma
# SK-MEL-5 melanoma = tested on: SK-MEL-5 melanoma
# SK-OV-3 ovarian = tested on: SK-OV-3 ovarian
# SN12C renal = tested on: SN12C renal
# SNB-19 CNS = tested on: SNB-19 CNS
# SNB-75 CNS = tested on: SNB-75 CNS
# SR leukemia = tested on: SR leukemia
# SW-620 colon = tested on: SW-620 colon
# T-47D breast = tested on: T-47D breast
# TK-10 renal = tested on: TK-10 renal
# U251 CNS = tested on: U251 CNS
# UACC-257 melanoma = tested on: UACC-257 melanoma
# UACC-62 melanoma = tested on: UACC-62 melanoma
# UO-31 renal = tested on: UO-31 renal
smiles,measurement,setting,value
CC12CCC(C(Br)(Br)C1=O)C2(C)C (stereo not drawn),TGI,786-0 renal,3.84 µM
same,TGI,A498 renal,17.5 µM
same,TGI,A549 NSCLC,> 100 µM
same,TGI,ACHN renal,7.69 µM
same,TGI,BT-549 breast,2.68 µM
same,TGI,CAKI-1 renal,14.9 µM
same,TGI,CCRF-CEM leukemia,0.196 µM
same,TGI,COLO 205 colon,14.7 µM
same,TGI,DU-145 prostate,37.1 µM
same,TGI,EKVX NSCLC,2.81 µM
same,TGI,HCC-2998 colon,4.91 µM
same,TGI,HCT-116 colon,3.71 µM
same,TGI,HCT-15 colon,3.57 µM
same,TGI,HL-60(TB) leukemia,0.149 µM
same,TGI,HOP-62 NSCLC,13.6 µM
same,TGI,HOP-92 NSCLC,2.81 µM
same,TGI,HS 578T breast,9.29 µM
same,TGI,HT29 colon,3.19 µM
same,TGI,IGROV1 ovarian,0.516 µM
same,TGI,K-562 leukemia,13.1 µM
same,TGI,KM12 colon,16.1 µM
same,TGI,LOX IMVI melanoma,11.3 µM
same,TGI,M14 melanoma,3.98 µM
same,TGI,MALME-3M melanoma,1 µM
same,TGI,MCF7 breast,> 36.8 µM
same,TGI,MDA-MB-231 breast,1.51 µM
same,TGI,MDA-MB-435,2.24 µM
same,TGI,MDA-N,2.65 µM
same,TGI,MOLT-4 leukemia,2.53 µM
same,TGI,NCI-H226 lung,8.64 µM
same,TGI,NCI-H23 lung,2.21 µM
same,TGI,NCI-H460 lung,27.2 µM
same,TGI,NCI-H522 lung,0.155 µM
same,TGI,NCI/ADR-RES ovarian,1.06 µM
same,TGI,OVCAR-3 ovarian,4.1 µM
same,TGI,OVCAR-4 ovarian,5.58 µM
same,TGI,OVCAR-5 ovarian,6.57 µM
same,TGI,OVCAR-8 ovarian,11.3 µM
same,TGI,PC-3 prostate,7.98 µM
same,TGI,RPMI-8226 leukemia,1.78 µM
same,TGI,RXF 393 renal,2.54 µM
same,TGI,SF-268 CNS,1.22 µM
same,TGI,SF-295 CNS,22.4 µM
same,TGI,SF-539 CNS,16.9 µM
same,TGI,SK-MEL-2 melanoma,0.98 µM
same,TGI,SK-MEL-28 melanoma,6.46 µM
same,TGI,SK-MEL-5 melanoma,4.74 µM
same,TGI,SK-OV-3 ovarian,> 31.6 µM
same,TGI,SN12C renal,5.84 µM
same,TGI,SNB-19 CNS,> 57.6 µM
same,TGI,SNB-75 CNS,11.6 µM
same,TGI,SR leukemia,12.9 µM
same,TGI,SW-620 colon,0.71 µM
same,TGI,T-47D breast,1.02 µM
same,TGI,TK-10 renal,11 µM
same,TGI,U251 CNS,0.224 µM
same,TGI,UACC-257 melanoma,16.7 µM
same,TGI,UACC-62 melanoma,10.1 µM
same,TGI,UO-31 renal,3.25 µM
COc1ccc(SCc2cc(OC)c(OC)c(OC)c2)cc1OC,TGI,786-0 renal,> 100 µM
same,TGI,A498 renal,> 86.4 µM
same,TGI,A549 NSCLC,> 100 µM
same,TGI,ACHN renal,> 100 µM
same,TGI,BT-549 breast,> 100 µM
same,TGI,CAKI-1 renal,> 100 µM
same,TGI,CCRF-CEM leukemia,> 100 µM
same,TGI,COLO 205 colon,> 100 µM
same,TGI,DU-145 prostate,> 100 µM
same,TGI,EKVX NSCLC,> 100 µM
same,TGI,HCC-2998 colon,> 100 µM
same,TGI,HCT-116 colon,> 100 µM
same,TGI,HCT-15 colon,> 100 µM
same,TGI,HL-60(TB) leukemia,> 100 µM
same,TGI,HOP-62 NSCLC,> 100 µM
same,TGI,HOP-92 NSCLC,83.3 µM
same,TGI,HS 578T breast,> 100 µM
same,TGI,HT29 colon,> 100 µM
same,TGI,IGROV1 ovarian,> 100 µM
same,TGI,K-562 leukemia,> 100 µM
same,TGI,KM12 colon,> 100 µM
same,TGI,LOX IMVI melanoma,> 100 µM
same,TGI,M14 melanoma,> 100 µM
same,TGI,MALME-3M melanoma,> 100 µM
same,TGI,MCF7 breast,> 100 µM
same,TGI,MDA-MB-231 breast,> 100 µM
same,TGI,MDA-MB-435,63.1 µM
same,TGI,MDA-N,> 100 µM
same,TGI,MOLT-4 leukemia,> 100 µM
same,TGI,NCI-H226 lung,> 100 µM
same,TGI,NCI-H23 lung,> 100 µM
same,TGI,NCI-H460 lung,> 100 µM
same,TGI,NCI-H522 lung,> 100 µM
same,TGI,NCI/ADR-RES ovarian,> 100 µM
same,TGI,OVCAR-3 ovarian,> 100 µM
same,TGI,OVCAR-4 ovarian,> 100 µM
same,TGI,OVCAR-5 ovarian,> 100 µM
same,TGI,OVCAR-8 ovarian,> 100 µM
same,TGI,PC-3 prostate,> 100 µM
same,TGI,RPMI-8226 leukemia,> 100 µM
same,TGI,RXF 393 renal,> 100 µM
same,TGI,SF-268 CNS,> 100 µM
same,TGI,SF-295 CNS,> 100 µM
same,TGI,SF-539 CNS,> 100 µM
same,TGI,SK-MEL-2 melanoma,> 69.1 µM
same,TGI,SK-MEL-28 melanoma,> 100 µM
same,TGI,SK-MEL-5 melanoma,34.7 µM
same,TGI,SK-OV-3 ovarian,> 90.1 µM
same,TGI,SN12C renal,> 100 µM
same,TGI,SNB-19 CNS,> 100 µM
same,TGI,SNB-75 CNS,> 70.5 µM
same,TGI,SR leukemia,> 100 µM
same,TGI,SW-620 colon,> 100 µM
same,TGI,T-47D breast,> 31.6 µM
same,TGI,TK-10 renal,> 100 µM
same,TGI,U251 CNS,> 100 µM
same,TGI,UACC-257 melanoma,> 100 µM
same,TGI,UACC-62 melanoma,> 100 µM
same,TGI,UO-31 renal,> 100 µM
